Source: patent publication US20130316965A1, “IDRABI[…] THE TREATMENT OF PULMONARY EMBOLISM AND FOR THE SECONDARY PREVENTION OF VENOUS THRO[…]” (priority 2011, published 2013)

What was measured:
[1] = tested on: patients with pulmonary embolism; conditions: human, in vivo; cited from earlier work
[2] = tested on: patients with symptomatic pulmonary embolism with or without symptomatic deep venous thrombosis; test: CASSIOPEA (EFC6034) phase III clinical trial: symptomatic recurrent PE/DVT (efficacy); format: in vivo, human
Method: Patients with confirmed symptomatic PE with or without acute symptomatic DVT are eligible for this trial. Treatment with a therapeutic dose of any LMWH or UFH or fondaparinux is allowed only within the 36 hours immediately preceding randomization. Randomization is performed as soon as the diagnosis of PE (and DVT if concomitant suspected symptomatic DVT) is confirmed.
(§1) A blinded central and independent adjudication committee (CIAC) assesses PE (and DVT when applicable), all episodes of locally confirmed or doubtful PE/DVT recurrences, clinically relevant bleedings and deaths. Adjudication results are the basis for the final analyses.
Patients in the 3-month stratum have an additional 13-week observational period after cessation of study treatment. Patients in the 6-month stratum have a 13-week up to 26-week observational period.
Injections of SSR126517E (or its placebo) is started 12 h after the last post-randomization enoxaparin administration. SSR126517E (or its placebo) is administered s.c. once-weekly for a period of 3 or 6 months. All patients receive a first 0.5 ml injection (3.0 mg in the SSR126517E group). The following injections are also 0.5 ml, except in patients with severe renal insufficiency (defined as creatinine clearance <30 mL/min), who decrease to a dosage of 0.3 ml (1.8 mg in the SSR126517E group).
The primary efficacy outcome is symptomatic recurrent PE/DVT (fatal or not), as validated by the CIAC, within 99 days for patients from both strata (3- and 6-month treatments).
A secondary efficacy outcome for patients in the 6-month stratum is symptomatic recurrent PE/DVT, as validated by the CIAC, within 190 days.
There are 2 additional efficacy outcomes: • the time to first symptomatic recurrent PE/DVT (fatal or non fatal) within the patient's treatment period, i.e. a combined analysis of the 3-and 6-month strata patients; • the separate components of the efficacy outcomes within 99 days (all patients) and within 190 days (6-month stratum patients only).
The definitions to confirm a suspected symptomatic episode of recurrent PE/DVT are as follows:
Efficacy analyses are performed on the—All-randomized—population (patients with a patient number and an allocated treatment number recorded in the IVRS database).
The secondary efficacy outcome (VTE recurrence within 190 days) for patients in the 6-month stratum is analyzed using the same method and applying the same non-inferiority margin.
Time to first symptomatic recurrent PE/DVT within the patient's study treatment period for all patients is analyzed using Cox's proportional hazards model, stratified on intended treatment duration.

[3] = tested on: patients with symptomatic pulmonary embolism with or without symptomatic deep venous thrombosis; test: CASSIOPEA (EFC6034) phase III clinical trial: clinically relevant bleeding (safety); format: in vivo, human
Excerpt: According to the instant invention, the term “bleedings” designates any clinically relevant bleeding (i.e. major or clinically relevant non-major hemorrhage).
According to the instant invention, the term “major bleedings” designates any of the following clinical situations: • bleeding associated with a fall in hemoglobin of 2 g per deciliter or more, • bleeding that led to a transfusion of 2 or more units of packed red cells or whole blood (a red cell unit being defined as the quantity of red cells obtained from or corresponding to approximately 500 ml of whole blood), • bleeding that involved a critical organ (intracranial, intraocular, intraspinal, retroperitoneal or pericardial), • bleeding that contributed to death.
as §1
The principal safety outcome is any clinically relevant bleeding as classified by the CIAC (i.e. major bleeding and other clinically relevant non-major bleeding).
Bleeding analyses are also performed on the—All-randomized—population. Other safety analyses are performed on the—All-treated—population.
Rates of clinically relevant bleedings are calculated in each treatment group at 3 months (99 days) and 6 months (190 days) and compared between treatment groups using a Mantel-Haenszel chi-square stratified on intended treatment duration. Cumulative incidences of clinically relevant bleedings during the combined 3-month and 6-month period and up to the end of study are described by treatment group using the Kaplan Meier method.

[4] = tested on: patients with symptomatic pulmonary embolism with or without symptomatic deep venous thrombosis; test: CASSIOPEA (EFC6034) phase III clinical trial: deaths; format: in vivo, human; conditions: overall
Excerpt: as §1

[5] = tested on: patients with symptomatic pulmonary embolism with or without symptomatic deep venous thrombosis; test: CASSIOPEA (EFC6034) phase III clinical trial: benefit-risk assessment (PE, DVT or major bleeding composite); format: in vivo, human; conditions: Randomized population; composite endpoint
Excerpt: Tables 13 and 14 show the incidence of pulmonary embolism, deep venous thrombosis or major bleedings (composite endpoint) in the randomized population in the treatment phase (3-month or 6-month treatment with idrabiotaparinux) and up to the end of the study (assessment at 12 months).

[6] = Randomized population, All patients
[7] = Randomized population, Patients with VKA beyond D99/D190
[8] = Randomized population, Patients with no VKA beyond D99/D190
[9] = Randomized population, or death for which PE could not be ruled out
[10] = combined 3-month and 6-month periods, time-to-event analysis (Kaplan-Meier)
[11] = treatment period plus 3 to 6-month post-treatment follow-up (up to end of study)

SMILES: CO[C@H]1O[C@H](COS(=O)(=O)O)[C@@H](O[C@@H]2O[C@@H](C(=O)O)[C@@H](O[C@H]3O[C@H](COS(=O)(=O)O)[C@@H](O[C@@H]4O[C@H](C(=O)O)[C@@H](O[C@H]5O[C@H](COS(=O)(=O)O)[C@@H](OC)[C@H](OC)[C@H]5OC)[C@H](OC)[C@H]4OC)[C@H](OS(=O)(=O)O)[C@H]3OS(=O)(=O)O)[C@H](OC)[C@H]2OC)[C@H](OS(=O)(=O)O)[C@H]1OS(=O)(=O)O [idraparinux]
- Outcome in patients with pulmonary embolism [1]: apparent failure

SMILES: CC(=O)CC(c1ccccc1)c1c(O)c2ccccc2oc1=O (stereo not drawn) [Warfarin, warfarin, reference compound]
- DVT only within 190 days from randomization: Patients with event ([2]; 6-month stratum): 17 (1.3%) n (%)
- Non-fatal PE within 190 days from randomization: Patients with event ([2]; 6-month stratum): 10 (0.8%) n (%)
- Symptomatic recurrent PE/DVT (fatal or not) from randomization to end of study: Patients with event ([2]; 6-month stratum, All patients): 76 (6.0%) n (%)
- Symptomatic recurrent PE/DVT (fatal or not) from randomization to end of study: Patients with event ([2]; 6-month stratum, Patients with VKA beyond D190): 37 (9.1%) n (%)
- Symptomatic recurrent PE/DVT (fatal or not) from randomization to end of study: Patients with event ([2]; 6-month stratum, Patients with no VKA beyond D190): 39 (4.5%) n (%)
- Fatal PE within 190 days from randomization: Patients with event ([2]; 6-month stratum, or death for which PE could not be ruled out): 9 (0.7%) n (%)
- Patients who experienced DVT up to Day 190 ([2]; 6-month stratum, up to Day 190): 1.3%
- DVT only up to the end of study: Patients with event ([2]; Randomized population): 31 (1.9%) n (%)
- DVT only within 99 days from randomization: Patients with event ([2]; Randomized population): 18 (1.1%) n (%)
- Non-fatal PE up to the end of study: Patients with event ([2]; Randomized population): 41 (2.6%) n (%)
- Non-fatal PE within 99 days from randomization: Patients with event ([2]; Randomized population): 9 (0.6%) n (%)
- Symptomatic recurrent PE/DVT (fatal or not) within 190 days from randomization: Patients with event ([2]; Randomized population in the 6-month stratum): 36 (2.8%) n (%)
- Symptomatic recurrent PE/DVT (fatal or not) from D100/D191 to end of study: Patients with event [2, 6]: 47 (3.1%) n (%)
- Symptomatic recurrent PE/DVT (fatal or not) from randomization to end of study: Patients with event [2, 6]: 97 (6.1%) n (%)
- Symptomatic recurrent PE/DVT (fatal or not) from D100/D191 to end of study: Patients with event [2, 7]: 32 (6.6%) n (%)
- Symptomatic recurrent PE/DVT (fatal or not) from randomization to end of study: Patients with event [2, 7]: 45 (9.3%) n (%)
- Symptomatic recurrent PE/DVT (fatal or not) from D100/D191 to end of study: Patients with event [2, 8]: 15 (1.5%) n (%)
- Symptomatic recurrent PE/DVT (fatal or not) from randomization to end of study: Patients with event [2, 8]: 52 (4.6%) n (%)
- Fatal PE up to the end of study: Patients with event [2, 9]: 25 (1.6%) n (%)
- Fatal PE within 99 days from randomization: Patients with event [2, 9]: 16 (1.0%) n (%)
- Symptomatic recurrent PE/DVT (fatal or not) within 99 days from randomization: Patients with event ([2]; Randomized population, within 99 days): 43 (2.7%) n (%)
- Cumulative incidence of symptomatic recurrent PE/DVT at Day 99 [2, 10]: 2.7%
- Cumulative incidence of symptomatic recurrent PE/DVT at Day 190 [2, 10]: 3.4%
- Cumulative incidence rate of symptomatic recurrent PE/DVT at Day 360 [2, 11]: 7.2%
- Patients who experienced DVT up to Day 99 ([2]; up to Day 99): 1.1%
- Patients who experienced DVT up to the end of study ([2]; up to the end of study): 1.9%
- Patients who experienced non-fatal PE up to the end of study ([2]; up to the end of study): 2.6%
- Clinically relevant bleedings up to Day 190 ([3]; 6-month stratum): 8.1%
- Fatal bleeding within 190 days from randomization: Patients with event ([3]; 6-month stratum): 5 (0.4%) n (%)
- Intracranial haemorrhage (fatal or not) within 190 days from randomization: Patients with event ([3]; 6-month stratum): 6 (0.5%) n (%)
- Major bleeding within 190 days from randomization: Patients with event ([3]; 6-month stratum): 36 (2.8%) n (%)
- Patients who experienced a major bleeding up to Day 190 ([3]; 6-month stratum): 2.8%
- Any clinically relevant bleeding within 99 days from randomization: Patients with event ([3]; Randomized population): 106 (6.6%) n (%)
- Fatal bleeding within 99 days from randomization: Patients with event ([3]; Randomized population): 6 (0.4%) n (%)
- Intracranial haemorrhage (fatal or not) within 99 days from randomization: Patients with event ([3]; Randomized population): 7 (0.4%) n (%)
- Major bleeding within 99 days from randomization: Patients with event ([3]; Randomized population): 39 (2.4%) n (%)
- Cumulative incidence of clinically relevant bleeding at Day 99 [3, 10]: 6.7%
- Cumulative incidence of clinically relevant bleeding at Day 190 [3, 10]: 9.1%
- Cumulative incidence rate of clinically relevant bleeding at Day 360 [3, 11]: 10.0%
- Incidence of clinically relevant bleeding up to Day 99 ([3]; up to Day 99): 6.6%
- Patients who experienced a major bleeding up to Day 99 ([3]; up to Day 99): 2.4%
- Patients who died on study [4]: 5.3%
- PE, DVT or major bleeding in the combined 3-month and 6-month period: Patients with event [5]: 98 (6.1%) n (%)
- PE, DVT or major bleeding up to the end of study: Patients with event [5]: 150 (9.4%) n (%)
